Assay results as given in patent US20250163051A1, “PYRIMIDO AROMATIC RING COMPOUND AND USE THEREOF IN DRUG” (SUNSHINE LAKE PHARMA CO., LTD., priority 2022, published 2025).

Experiments:
hTLR7 = biological target: T1, hTLR7 (Homo sapiens, UniProt Q9NYK1); assay: Agonistic activity on human TLR7 in HEK-Blue hTLR7 cells (QUANTI-Blue); format: cell-based; conditions: 24 h incubation, OD650, read-out: hTLR 7 EC50
T1 construct: expressed in transfected cells; host or cells: HEK-Blue hTLR7 cells
T1 sequence (Q9NYK1 27-1049): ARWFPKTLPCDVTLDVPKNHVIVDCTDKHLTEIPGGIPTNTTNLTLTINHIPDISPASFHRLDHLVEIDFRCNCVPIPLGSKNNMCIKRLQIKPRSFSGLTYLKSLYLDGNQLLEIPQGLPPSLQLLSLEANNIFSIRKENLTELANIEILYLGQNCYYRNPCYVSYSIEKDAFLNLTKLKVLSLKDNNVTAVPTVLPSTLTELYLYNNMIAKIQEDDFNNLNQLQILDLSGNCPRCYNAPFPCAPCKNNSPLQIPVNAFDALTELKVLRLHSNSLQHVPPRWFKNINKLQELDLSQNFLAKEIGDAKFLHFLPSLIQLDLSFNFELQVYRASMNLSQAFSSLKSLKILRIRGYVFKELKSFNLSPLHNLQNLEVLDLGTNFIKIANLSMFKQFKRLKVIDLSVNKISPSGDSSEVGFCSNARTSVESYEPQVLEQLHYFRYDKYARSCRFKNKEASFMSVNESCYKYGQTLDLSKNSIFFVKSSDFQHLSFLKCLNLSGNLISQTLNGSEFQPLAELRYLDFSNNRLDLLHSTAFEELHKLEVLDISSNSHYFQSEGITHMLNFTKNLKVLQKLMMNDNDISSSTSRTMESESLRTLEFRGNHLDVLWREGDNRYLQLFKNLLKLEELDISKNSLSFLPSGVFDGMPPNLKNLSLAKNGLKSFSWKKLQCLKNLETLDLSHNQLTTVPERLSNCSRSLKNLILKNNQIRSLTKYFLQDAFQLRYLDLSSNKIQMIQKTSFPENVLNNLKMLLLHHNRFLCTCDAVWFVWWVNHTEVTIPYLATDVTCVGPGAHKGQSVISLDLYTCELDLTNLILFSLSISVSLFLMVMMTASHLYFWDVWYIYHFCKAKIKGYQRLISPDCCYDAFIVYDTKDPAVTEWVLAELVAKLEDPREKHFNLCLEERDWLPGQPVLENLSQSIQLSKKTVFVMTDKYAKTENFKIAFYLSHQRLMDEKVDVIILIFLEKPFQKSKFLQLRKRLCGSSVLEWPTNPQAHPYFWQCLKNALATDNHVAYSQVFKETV
Description: Purpose: HEK-Blue™ hTLR7 and HEK-Blue™ hTLR8 cells were used to detect the agonist and cytotoxic activities of compounds against hTLR7 and hTLR8.
The experimental steps were as shown below: • 1) Preparation of compound: The compound was prepared into a 20 mM stock solution with DMSO, and then the stock solution was diluted 3-fold in a gradient and added to a 96-well plate, for a total of 10 concentrations, with duplicate wells for each concentration. For negative control wells, 0.5 μL DMSO was added to each well. The final DMSO concentration was 0.5%. • 2) HEK-Blue™ hTLR7 or HEK-Blue™ hTLR8 cells were suspended in culture medium and then seeded into 96-well plates containing compounds at a cell count of 50,000 per well. The compounds and cells were incubated for 24 h at 37° C., 5% Co2. • 3) QUANTI-Blue was used for the detection solution: to a mixture of 1 mL of QB reagent and 1 mL of QB buffer was added 98 mL of sterile water, the mixture was mixed and dissolved, and then placed at room temperature for 10 min. • 4) Activity test of the compound: 20 μL of the culture supernatant in step 2) was added to each well of a 96-well plate containing 180 μL of QUANTI-Blue detection solution. After incubation at 37° C. for 1 h, the absorbance at 650 nm (OD650) was detected using a multifunctional microplate reader Flextation III. • 5) Detection of cell activity: The chemiluminescent signal (RLU) was detected using the multifunctional microplate reader Flextation III according to the instructions of Celltiter-Glo. • 6) Data analysis
Activity of compounds: OD650 values were analyzed using GraphPad Prism software, and the compound dose-effect curves were fitted to calculate the EC50 values of the compounds.

hTLR8 = biological target: T2, hTLR8 (Homo sapiens, UniProt Q9NR97); assay: Agonistic activity on human TLR8 in HEK-Blue hTLR8 cells (QUANTI-Blue); format: cell-based; conditions: 24 h incubation, OD650, read-out: hTLR 8 EC50
T2 construct: expressed in transfected cells; host or cells: HEK-Blue hTLR8 cells
T2 sequence (Q9NR97 27-1041): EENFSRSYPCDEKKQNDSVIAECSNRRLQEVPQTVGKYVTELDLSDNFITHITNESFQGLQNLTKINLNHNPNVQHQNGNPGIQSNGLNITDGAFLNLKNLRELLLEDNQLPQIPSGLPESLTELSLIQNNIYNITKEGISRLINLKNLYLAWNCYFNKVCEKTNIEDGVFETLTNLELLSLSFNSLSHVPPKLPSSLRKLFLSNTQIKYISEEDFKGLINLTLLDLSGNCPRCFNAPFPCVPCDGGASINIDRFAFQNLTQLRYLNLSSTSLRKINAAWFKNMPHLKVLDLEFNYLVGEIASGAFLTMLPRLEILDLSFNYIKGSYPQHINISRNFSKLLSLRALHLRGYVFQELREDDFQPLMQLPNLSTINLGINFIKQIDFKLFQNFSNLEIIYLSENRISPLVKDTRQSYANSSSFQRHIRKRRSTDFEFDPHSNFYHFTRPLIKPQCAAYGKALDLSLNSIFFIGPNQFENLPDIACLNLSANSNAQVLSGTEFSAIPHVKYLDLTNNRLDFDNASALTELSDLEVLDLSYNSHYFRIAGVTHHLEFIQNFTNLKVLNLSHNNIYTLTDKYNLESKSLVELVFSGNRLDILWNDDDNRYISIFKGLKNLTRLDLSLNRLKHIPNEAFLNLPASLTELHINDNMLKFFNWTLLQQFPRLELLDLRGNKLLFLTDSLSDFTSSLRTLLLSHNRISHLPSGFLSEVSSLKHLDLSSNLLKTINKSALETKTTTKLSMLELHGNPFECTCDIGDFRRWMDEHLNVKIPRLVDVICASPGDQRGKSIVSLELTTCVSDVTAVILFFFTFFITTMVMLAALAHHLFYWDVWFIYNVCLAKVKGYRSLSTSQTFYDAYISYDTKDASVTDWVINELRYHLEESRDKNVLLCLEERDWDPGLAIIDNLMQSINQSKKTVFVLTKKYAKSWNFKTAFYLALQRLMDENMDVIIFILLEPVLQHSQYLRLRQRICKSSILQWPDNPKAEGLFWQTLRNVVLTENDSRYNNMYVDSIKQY

[1] = Cell toxicity (Celltiter-Glo) in HEK-Blue hTLR8 cells; conditions: human

Row | EC50 (hTLR7) [µM] | EC50 (hTLR8) [nM] | SMILES | CC50 at 24 h [1] [µM]
1 | > 100 | 292 | CCCC[C@](C)(CO)Nc1nc(N)nc2cc(-c3cc(=O)[nH]cc3CN(C)CCO)ccc12 [Example 60, (R)-4-(2-Amino-4-((1-hydroxy-2-methylhexan-2-yl)amino)quinazolin-7-yl)-5-(((2-hydroxyethyl)(methyl)amino)methyl)pyridin-2(1H)-one] | > 100
2 | > 100 | 918 | CCCCNCc1c[nH]c(=O)cc1-c1ccc2c(N[C@@](C)(CO)CCCC)nc(N)nc2c1 [Example 58, (R)-4-(2-Amino-4-((1-hydroxy-2-methylhexan-2-yl)amino)quinazolin-7-yl)-5-((butylamino)methyl)pyridin-2(1H)-one] | > 100
3 | > 100 | 1860 | CCCC[C@](C)(CO)Nc1nc(N)nc2cc(-c3cc(=O)[nH]cc3CNCCOC)ccc12 [Example 57, (R)-4-(2-Amino-4-((1-hydroxy-2-methylhexan-2-yl)amino)quinazolin-7-yl)-5-(((2-methoxyethyl)amino)methyl)pyridin-2(1H)-one] | > 100
4 | > 100 | 183 | CCCC[C@](C)(CO)Nc1nc(N)nc2cc(-c3cc(=S)[nH]cc3CN(C)CCOC)cnc12 [Example 66, (R)-4-(2-Amino-4-((1-hydroxy-2-methylhexan-2-yl)amino)pyrido[3,2-d]pyrimidin-7-yl)-5-(((2-methoxyethyl)(methyl)amino)methyl)pyridine-2(1H)-thione] | > 100
5 | > 100 | 212 | CCCC[C@](C)(CO)Nc1nc(N)nc2cc(-c3cc(=S)[nH]cc3CN(C)CCOC)ccc12 [Example 65, (R)-4-(2-Amino-4-((1-hydroxy-2-methylhexan-2-yl)amino)quinazolin-7-yl)-5-(((2-methoxyethyl)(methyl)amino)methyl)pyridine-2(1H)-thione] | > 100
6 | 14.2 | 42 | CCCC[C@](C)(CO)Nc1nc(N)nc2cc(-c3cc(=O)[nH]cc3COC)ccc12 [Example 68, (R)-4-(2-Amino-4-((1-hydroxy-2-methylhexan-2-yl)amino)quinazolin-7-yl)-5-(methoxymethyl) pyridin-2(1H)-one] | > 100
7 | > 100 | 2850 | CCCC[C@](C)(CO)Nc1nc(N)nc2cc(-c3cc(=O)[nH]cc3CN(C)CCNC)cnc12 [Example 20] | > 100
8 | > 100 | 56 | CCCC[C@](C)(CO)Nc1nc(N)nc2cc(-c3cc(=O)[nH]cc3CN(C)C)ccc12 [Example 67, (R)-4-(2-Amino-4-((1-hydroxy-2-methylhexan-2-yl)amino)quinazolin-7-yl)-5-((dimethylamino)methyl)pyridin-2(1H)-one] | > 100

More lines, now with the values behind:

Row | SMILES | EC50 (hTLR7) [µM] | EC50 (hTLR8) [nM] | CC50 at 24 h [1] [µM]
9 | CCCC[C@](C)(CO)Nc1nc(N)nc2cc(-c3cc(=O)[nH]cc3CSC)cnc12 [Example 52, (R)-4-(2-Amino-4-((1-hydroxy-2-methylhexan-2-yl)amino)pyrido[3,2-d]pyrimidin-7-yl)-5-((methylthio)methyl)pyridin-2(1H)-one] | 18.4 | 30 | > 100
10 | C=CCCN(C)Cc1c[nH]c(=O)cc1-c1cnc2c(N[C@](C)(CCCC)CNC(=O)c3cnn(C)c3)nc(N)nc2c1 [Example 44, (R)—N-(2-((2-Amino-7-(5-((but-3-en-1-yl(methyl)amino)methyl)-2-oxo-1,2-dihydropyridin-4-yl)pyrido[3,2-d]pyrimidin-4-yl)amino)-2-methylhexyl)-1-methyl-1H-pyrazole-4-carboxamide] | > 100 | 166 | > 100
11 | CCCC[C@](C)(CO)Nc1nc(N)nc2cc(-c3cc(=O)[nH]cc3CN3CCN(C)CC3)cnc12 [Example 22] | > 100 | 980 | > 100
12 | C=CCCN(C)Cc1cn(C)c(=O)cc1-c1cnc2c(N[C@@](C)(CO)CCCC)nc(N)nc2c1 [Example 7] | > 100 | 315 | > 100
13 | C=CCCN(CC)Cc1c[nH]c(=O)cc1-c1cnc2c(N[C@@](C)(CO)CCCC)nc(N)nc2c1 [Example 18] | > 100 | 132 | > 100
14 | CCCC[C@](C)(CO)Nc1nc(N)nc2cc(-c3cc(=O)[nH]cc3CN3CCSCC3)cnc12 [Example 25] | > 100 | 130 | > 100
15 | CC#CCN(C)Cc1c[nH]c(=O)cc1-c1cnc2c(N[C@@](C)(CO)CCCC)nc(N)nc2c1 [Example 27] | > 100 | 4250 | > 100
16 | CCCC[C@](C)(CO)Nc1nc(N)nc2cc(-c3cc(=O)[nH]cc3CN3CCOCC3)cnc12 [Example 24] | > 100 | 239 | > 100
17 | C=CCCN(C)Cc1cn(C)c(=O)cc1-c1cnc2c(N[C@](C)(CCCC)CNC(=O)c3cnn(C)c3)nc(N)nc2c1 [Example 45] | > 100 | 97 | > 100
18 | C=CCCN(C)Cc1cn(C)c(=O)cc1-c1ccc2c(N[C@](C)(CCCC)CNC(=O)c3cnn(C)c3)nc(N)nc2c1 [Example 46] | > 100 | 569 | > 100
19 | C=CCC(=O)N(C)Cc1c[nH]c(=O)cc1-c1cnc2c(N[C@@](C)(CO)CCCC)nc(N)nc2c1 [Example 40, (R)—N-((4-(2-Amino-4-((1-hydroxy-2-methylhexan-2-yl)amino)pyrido[3,2-d]pyrimidin-7-yl)-6-oxo-1,6-dihydropyridin-3-yl)methyl)-N-methylbut-3-enamide] | > 100 | 1520 | > 100
